Test results published in patent publication US11807634B2, “Cyclopropyl dihydroquinoline sulfonamide compounds” (AMGEN INC., priority 2020, dated 2023).

tested on: CYP3A4; experiment: Human CYP 3A4 induction assay (mRNA, cryopreserved human hepatocytes); format: in vitro ADME; settings: human hepatocytes, 10 uM test compound, 72 hours, mRNA, percent of control (rifampin positive control)
Method: Human CYP 3A4 Induction Assay
Cryopreserved human hepatocytes were seeded in 96-well collagen coated plates at 70,000 cells per well in hepatocyte plating media (HPM, final concentrations: 1× Dulbecco's Modified Eagle's Medium, 0.1 μM dexamethasone, 10% fetal bovine serum, 1× ITS, 1×PSG) followed by incubation at 37° C. under 5% CO2 and 90% relative humidity for 2 days to allow hepatocytes to form a confluent layer. On Day 3, hepatocytes were treated with either test compound or rifampin (20 μM, positive control for CYP3A induction) prepared in hepatocyte incubation media ((HIM, final concentrations: 1× William's Medium E, 0.1 μM dexamethasone, 1×ITS, 1×PSG). Treatment was performed for 72 hours with either 2 concentrations (2 μM or 10 μM) or a range of concentrations (0.001 μM to 100 μM) of the test compound to obtain full dose-response curve. Fresh media containing the relevant concentrations of the test compound was replaced every day until the samples were processed. After 72 hours of incubation, samples were processed for mRNA analysis using bDNA technology using manufacturer's instructions (Affymetrix, Fremont, Calif.). Cell viability was tested at the end of the experiment using MTT assay kit (Roche Diagnostics, Basel, Switzerland). Data was analyzed and presented as percent of control (POC) and Emax and EC50 obtained when appropriate according to guidance from Center for Drug Evaluation and Research (CDER), 2006, Guidance for Industry, Drug Interaction Studies—Study Design, Data Analysis, and Implications for Dosing and Labeling.
Cryopreserved human hepatocytes were seeded in 96-well collagen coated plates at 70,000 cells per well in hepatocyte plating media (HPM, final concentrations: 1× Dulbecco's Modified Eagle's Medium, 0.1 μM dexamethasone, 10% fetal bovine serum, 1×ITS, 1×PSG) followed by incubation at 37° C. under 5% CO2 and 90% relative humidity for 2 days to allow hepatocytes to form a confluent layer. On Day 3, hepatocytes were treated with either test compound or rifampin (20 μM, positive control for CYP3A induction) prepared in hepatocyte incubation media ((HIM, final concentrations: 1× William's Medium E, 0.1 μM dexamethasone, 1×ITS, 1×PSG). Treatment was performed for 72 hours with either 2 concentrations (2 μM or 10 μM) or a range of concentrations (0.001 μM to 100 μM) of the test compound to obtain full dose-response curve. Fresh media containing the relevant concentrations of the test compound was replaced every day until the samples were processed. After 72 hours of incubation, samples were processed for mRNA analysis using bDNA technology using manufacturer's instructions (Affymetrix, Fremont, Calif.). Cell viability was tested at the end of the experiment using MTT assay kit (Roche Diagnostics, Basel, Switzerland). Data was analyzed and presented as percent of control (POC) and Emax and EC50 obtained when appropriate, as described in Halladay, J. et al, 2012, An “all-inclusive” 96-well cytochrome P450 induction method: Measuring enzyme activity, mRNA levels, protein levels, and cytotoxicity from one well using cryopreserved human hepatocytes, Pharmacological and Toxicological Methods, 66:270-275.
The cytochrome P450 (CYP) is a well-known superfamily of enzymes that are responsible for the oxidative and reductive metabolic transformation of medications used in clinical practice. In addition, the CYP enzymes are commonly associated with causing many clinically relevant drug-drug interactions. Of the CYP enzymes, CYP3A4 is not only the most prevalent CYP enzyme in the liver and intestine, but is responsible for metabolism and elimination of approximately 50% of marketed drugs. In addition, CYP3A4 activity can be induced (or increased) or inhibited (decreased) in response to administration of certain drugs, thereby affecting concentrations of their own or certain concomitant drugs present in the body. […]

| Compound | CYP3A4 mRNA Induct Hu 10 uM POC |
| --- | --- |
| COc1cc([C@H]2C[C@@H]2C(F)(F)F)c(F)cc1-n1c(=O)ccc2cc(S(=O)(=O)Nc3ccon3)ccc21 (atropisomer, axis not shown; (P)) [Example 4, (P)-1-(5-fluoro-2-methoxy-4-((1S,2S)-2-(trifluoromethyl)cyclopropyl)phenyl)-N-(isoxazol-3-yl)-2-oxo-1,2-dihydroquinoline-6-sulfonamide] | 15.9% |
| COc1cc([C@@H]2C[C@H]2C(F)(F)F)c(F)cc1-n1c(=O)ccc2cc(S(=O)(=O)Nc3ccon3)ccc21 (atropisomer, axis not shown; (P)) [Example 5, (P)-1-(5-fluoro-2-methoxy-4-((1R,2R)-2-(trifluoromethyl)cyclopropyl)phenyl)-N-(isoxazol-3-yl)-2-oxo-1,2-dihydroquinoline-6-sulfonamide] | 41.96% |
| COc1cc([C@@H]2C[C@H]2C)c(F)cc1-n1c(=O)ccc2cc(S(=O)(=O)Nc3ccon3)ccc21 (atropisomer, axis not shown; (P)) [Example 6, (P)-1-(5-fluoro-2-methoxy-4-((1R,2R)-2-methylcyclopropyl)phenyl)-N-(isoxazol-3-yl)-2-oxo-1,2-dihydroquinoline-6-sulfonamide] | 25.49% |
| COc1cc([C@H]2C[C@@H]2C)c(F)cc1-n1c(=O)ccc2cc(S(=O)(=O)Nc3ccon3)ccc21 (atropisomer, axis not shown; (P)) [Example 7, (P)-1-(5-fluoro-2-methoxy-4-((1S,2S)-2-methylcyclopropyl)phenyl)-N-(isoxazol-3-yl)-2-oxo-1,2-dihydroquinoline-6-sulfonamide] | 41.2% |
| COc1cc([C@@H]2C[C@H]2c2ccccc2)c(F)cc1-n1c(=O)ccc2cc(S(=O)(=O)Nc3ccon3)ccc21 (atropisomer, axis not shown; (P)) [Example 8, (P)-1-(5-fluoro-2-methoxy-4-((1R,2R)-2-phenylcyclopropyl)phenyl)-N-(isoxazol-3-yl)-2-oxo-1,2-dihydroquinoline-6-sulfonamide] | 27.54% |
| COc1cc([C@H]2C[C@@H]2c2ccccc2)c(F)cc1-n1c(=O)ccc2cc(S(=O)(=O)Nc3ccon3)ccc21 (atropisomer, axis not shown; (P)) [Example 9, (P)-1-(5-fluoro-2-methoxy-4-((1S,2S)-2-phenylcyclopropyl)phenyl)-N-(isoxazol-3-yl)-2-oxo-1,2-dihydroquinoline-6-sulfonamide] | 37.165% |
| COc1cc([C@H]2C[C@@H]2C(F)(F)F)c(Cl)cc1-n1c(=O)ccc2cc(S(=O)(=O)Nc3ncccn3)ccc21 (atropisomer, axis not shown; (P)) [Example 12, (P)-1-(5-chloro-2-methoxy-4-((1S,2S)-2-(trifluoromethyl)cyclopropyl)phenyl)-2-oxo-N-(pyrimidin-2-yl)-1,2-dihydroquinoline-6-sulfonamide] | 29.85% |
| COc1cc([C@@H]2C[C@H]2C(F)(F)F)c(Cl)cc1-n1c(=O)ccc2cc(S(=O)(=O)Nc3ncccn3)ccc21 (atropisomer, axis not shown; (P)) [Example 13, (P)-1-(5-chloro-2-methoxy-4-((1R,2R)-2-(trifluoromethyl)cyclopropyl)phenyl)-2-oxo-N-(pyrimidin-2-yl)-1,2-dihydroquinoline-6-sulfonamide] | 92.47% |
| COc1cc([C@@H]2C[C@H]2C(F)(F)F)c(F)cc1-n1c(=O)ccc2cc(S(=O)(=O)Nc3cccnn3)ccc21 (atropisomer, axis not shown; (P)) [Example 16, (P)-1-(5-fluoro-2-methoxy-4-((1R,2R)-2-(trifluoromethyl)cyclopropyl)phenyl)-2-oxo-N-(pyridazin-3-yl)-1,2-dihydroquinoline-6-sulfonamide] | 27.11% |
| COc1cc([C@H]2C[C@@H]2C(F)(F)F)c(F)cc1-n1c(=O)ccc2cc(S(=O)(=O)Nc3cccnn3)ccc21 (atropisomer, axis not shown; (P)) [Example 17, (P)-1-(5-fluoro-2-methoxy-4-((1S,2S)-2-(trifluoromethyl)cyclopropyl)phenyl)-2-oxo-N-(pyridazin-3-yl)-1,2-dihydroquinoline-6-sulfonamide] | 37.04% |
| COc1cc([C@@H]2C[C@H]2C(F)(F)F)c(Cl)cc1-n1c(=O)ccc2cc(S(=O)(=O)Nc3ccon3)ccc21 (atropisomer, axis not shown; (P)) [Example 18, (P)-1-(5-chloro-2-methoxy-4-((1R,2R)-2-(trifluoromethyl)cyclopropyl)phenyl)-N-(isoxazol-3-yl)-2-oxo-1,2-dihydroquinoline-6-sulfonamide] | 9.92% |
| COc1cc([C@H]2C[C@@H]2C(F)(F)F)c(Cl)cc1-n1c(=O)ccc2cc(S(=O)(=O)Nc3ccon3)ccc21 (atropisomer, axis not shown; (P)) [Example 19, (P)-1-(5-chloro-2-methoxy-4-((1S,2S)-2-(trifluoromethyl)cyclopropyl)phenyl)-N-(isoxazol-3-yl)-2-oxo-1,2-dihydroquinoline-6-sulfonamide] | 85.5% |
| COc1cc([C@@H]2C[C@H]2C(F)(F)F)c(F)cc1-n1c(=O)ccc2cc(S(=O)(=O)Nc3ncccn3)ccc21 (atropisomer, axis not shown; (P)) [Example 20, (P)-1-(5-fluoro-2-methoxy-4-((1R,2R)-2-(trifluoromethyl)cyclopropyl)phenyl)-2-oxo-N-(pyrimidin-2-yl)-1,2-dihydroquinoline-6-sulfonamide] | 67.47% |
| COc1cc([C@H]2C[C@@H]2C(F)(F)F)c(F)cc1-n1c(=O)ccc2cc(S(=O)(=O)Nc3ncccn3)ccc21 (atropisomer, axis not shown; (P)) [Example 21, (P)-1-(5-fluoro-2-methoxy-4-((1S,2S)-2-(trifluoromethyl)cyclopropyl)phenyl)-2-oxo-N-(pyrimidin-2-yl)-1,2-dihydroquinoline-6-sulfonamide] | 34.81% |
| COc1cc(C2(C(F)(F)F)CC2)c(F)cc1-n1c(=O)ccc2cc(S(=O)(=O)Nc3ncccn3)ccc21 (atropisomer, axis not shown; (P)) [Example 23, (P)-1-(5-fluoro-2-methoxy-4-(1-(trifluoromethyl)cyclopropyl)phenyl)-2-oxo-N-(pyrimidin-2-yl)-1,2-dihydroquinoline-6-sulfonamide] | 85.95% |
| COc1cc(C2(C(F)(F)F)CC2)c(Cl)cc1-n1c(=O)ccc2cc(S(=O)(=O)Nc3ccon3)ccc21 (atropisomer, axis not shown; (P)) [Example 24, (P)-1-(5-chloro-2-methoxy-4-(1-(trifluoromethyl)cyclopropyl)phenyl)-N-(isoxazol-3-yl)-2-oxo-1,2-dihydroquinoline-6-sulfonamide] | 100.7% |
| COc1cc(C2(C(F)(F)F)CC2)c(Cl)cc1-n1c(=O)ccc2cc(S(=O)(=O)Nc3ncccn3)ccc21 (atropisomer, axis not shown; (P)) [Example 25, (P)-1-(5-chloro-2-methoxy-4-(1-(trifluoromethyl)cyclopropyl)phenyl)-2-oxo-N-(pyrimidin-2-yl)-1,2-dihydroquinoline-6-sulfonamide] | 88.68% |
| COc1cc([C@@H]2C[C@H]2C(F)(F)F)c(C)cc1-n1c(=O)ccc2cc(S(=O)(=O)Nc3ncccn3)ccc21 (atropisomer, axis not shown; (P)) [Example 28, (P)-1-(2-methoxy-5-methyl-4-((1R,2R)-2-(trifluoromethyl)cyclopropyl)phenyl)-2-oxo-N-(pyrimidin-2-yl)-1,2-dihydroquinoline-6-sulfonamide] | 23.36% |
